From patent US8076352B2, “Administration of carboline derivatives useful in the treatment of cancer and other diseases” (PTC Therapeutics, Inc., priority 2004, dated 2011)
pEC50: −log10 of the molar value.

What follows are compounds tested on hypoxia-inducible endogenous VEGF expression in HeLa cells (assay: Hypoxia-inducible endogenous VEGF expression, VEGF ELISA of conditioned media (dose-response EC50)). Conditions: Homo sapiens, HeLa cells under hypoxic conditions.
Format: cell-based
Procedure, shortened: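 Secreted VEGF was quantified by ELISA against a per-assay standard curve after HeLa cells spent 24-48 h in 1% O2, 5% CO2, N2 balance with or without compound. Across a series of, e.g., seven concentrations, percentage inhibition (max 100%, min 0%) gave EC50 and CC50 values.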

SMILES	pEC50
COc1ccc(C2c3[nH]c4ccc(Br)cc4c3CCN2C(=O)Oc2ccc(Cl)cc2)cc1 (centres unmarked) [Compound 355]	> 8.10
O=C(OCCCl)N1CCc2c([nH]c3ccc(Cl)cc23)C1c1cc(F)cc(F)c1 (centres unmarked) [Compound 83]	7.40 to 8.10
COCCOCC(=O)N1CCc2c([nH]c3ccc(Br)cc23)C1c1ccc(Br)cc1 (centres unmarked) [Compound 241]	< 6.00
CCOC(=O)N1CCc2c([nH]c3ccc(Cl)cc23)C1c1ccc(C)cc1 (centres unmarked) [Compound 91]	7.40 to 8.10
Clc1ccc2[nH]c3c(c2c1)CNCC3c1ccccc1 (centres unmarked) [Compound 248]	< 6.00
N#Cc1ccc(C2NCCc3c2[nH]c2ccc(Cl)cc32)cc1 (centres unmarked) [Compound 220]	6.00 to 6.70
COc1ccc(C2c3[nH]c4ccc(Cl)cc4c3CCN2C(=O)Nc2cccc(F)c2)cc1 (centres unmarked) [Compound 160]	6.70 to 7.40
Cc1ccc(C2c3[nH]c4ccc(Cl)cc4c3CCN2C(=O)Oc2ccc(Cl)cc2)cc1 (centres unmarked) [Compound 347]	> 8.10
COc1ccc(C2c3[nH]c4ccc(Cl)cc4c3CCN2C(=O)Nc2ccc(F)cc2)cc1 (centres unmarked) [Compound 179]	6.00 to 6.70
COc1ccc(OC(=O)N2CCc3c([nH]c4ccc(Cl)cc34)C2c2ccc(S(C)(=O)=O)cc2)cc1 (centres unmarked) [Compound 359]	6.70 to 7.40
CCOC(=O)N1CCc2c([nH]c3ccc(Cl)cc23)C1c1ccc(F)cc1 (centres unmarked) [Compound 23]	> 8.10
FC(F)(F)c1ccc(C2NCCc3c2[nH]c2ccc(Cl)cc32)cc1 (centres unmarked) [Compound 159]	6.70 to 7.40
CCOC(=O)N1CCc2c([nH]c3ccc(F)cc23)C1c1ccc(C)cc1 (centres unmarked) [Compound 209]	6.00 to 6.70
CN(C)c1ccc(C2NCCc3c2[nH]c2ccc(Cl)cc32)cc1 (centres unmarked) [Compound 297]	< 6.00
Cc1ccc(C2NCCc3c2[nH]c2ccc(Cl)cc32)cc1 (centres unmarked) [Compound 193]	6.00 to 6.70
O=C(OCCCl)N1CCc2c([nH]c3ccc(Cl)cc23)C1c1cccc(C(F)(F)F)c1 (centres unmarked) [Compound 15]	> 8.10
Clc1ccc2[nH]c3c(c2c1)CCN(c1ncccn1)C3c1ccc2c(c1)OCO2 (centres unmarked) [Compound 328]	< 6.00
CCC(C)NC(=S)N1CCc2c([nH]c3ccc(Cl)cc23)C1c1ccc(C(C)C)cc1 (centres unmarked) [Compound 336]	6.00 to 6.70
CCOC(=O)N1CCc2c([nH]c3ccc(Cl)cc23)C1c1cccc(Br)c1 (centres unmarked) [Compound 93]	7.40 to 8.10
COc1ccc(C2c3[nH]c4ccc(Cl)cc4c3CCN2C(=O)Nc2ccccc2)cc1 (centres unmarked) [Compound 167]	6.70 to 7.40

SMILES	pEC50
O=C(Oc1ccc(Cl)cc1)N1CCc2c([nH]c3ccc(Cl)cc23)C1c1ccc(OCCCn2cncn2)cc1 (centres unmarked) [Compound 391]	> 8.10
FC(F)(F)c1cccc(C2NCCc3c2[nH]c2ccc(Br)cc32)c1 (centres unmarked) [Compound 207]	6.00 to 6.70
CCCCCNC(=S)N1CCc2c([nH]c3ccc(Cl)cc23)C1c1ccc(C(C)C)cc1 (centres unmarked) [Compound 337]	6.70 to 7.40
CC(=O)N1CCc2c([nH]c3ccc(Br)cc23)C1c1ccc(C)cc1 (centres unmarked) [Compound 131]	6.70 to 7.40
COc1ccc2[nH]c3c(c2c1)CCNC3c1cccnc1 (centres unmarked) [Compound 324]	< 6.00
COCC(=O)N1CCc2c([nH]c3ccc(Br)cc23)C1c1cccc(Cl)c1 (centres unmarked) [Compound 218]	6.00 to 6.70
COc1ccc(C2NCCc3c2[nH]c2ccc(F)cc32)cc1 (centres unmarked) [Compound 315]	< 6.00
COc1ccc(C2NC(C(=O)NC3CCCCC3)Cc3c2[nH]c2ccc(Br)cc32)cc1 (centres unmarked) [Compound 245]	< 6.00
Clc1ccc(CC2NCCc3c2[nH]c2ccc(Cl)cc32)c(Cl)c1 (centres unmarked) [Compound 222]	6.00 to 6.70
CCOC(=O)N1CCc2c([nH]c3ccc(Cl)cc23)C1c1cc(F)ccc1F (centres unmarked) [Compound 82]	7.40 to 8.10
CCCOC(=O)N1CCc2c([nH]c3ccc(Cl)cc23)C1c1cccc(F)c1 (centres unmarked) [Compound 75]	7.40 to 8.10
CCCOC(=O)N1CCc2c([nH]c3ccc(Cl)cc23)C1c1ccc([N+](=O)[O-])cc1 (centres unmarked) [Compound 66]	7.40 to 8.10
CCCCCC1c2[nH]c3ccc(Cl)cc3c2CCN1Cc1ccccc1 (centres unmarked) [Compound 208]	6.00 to 6.70
Fc1cccc(C2NCCc3c2[nH]c2ccc(Br)cc32)c1F (centres unmarked) [Compound 132]	6.70 to 7.40
Clc1ccc2[nH]c3c(c2c1)CCNC3c1ccc(Cl)c(Cl)c1 (centres unmarked) [Compound 170]	6.70 to 7.40
Fc1ccc2[nH]c3c(c2c1)CCNC3c1ccc(Br)cc1 (centres unmarked) [Compound 256]	< 6.00
CCOC(=O)N1CCc2c([nH]c3ccc(Br)cc23)C1c1ccccc1 (centres unmarked) [Compound 27]	> 8.10
COC(=O)N1CCc2c([nH]c3ccc(Cl)cc23)C1c1ccc(F)c(F)c1 (centres unmarked) [Compound 134]	6.70 to 7.40
CCOC(=O)N1CCc2c([nH]c3ccc(Cl)cc23)C1Cc1ccccc1 (centres unmarked) [Compound 226]	6.00 to 6.70

Same assay, conditions: Homo sapiens, HeLa cells, hypoxic conditions (1% O2)

SMILES	pEC50
CCOC(=O)N1CCc2c([nH]c3ccc(Cl)cc23)C1c1cccc(C(=O)N2CCN(CC)CC2)c1 (centres unmarked) [Compound 525]	6.00 to 6.70
O=C(Oc1ccc(Cl)cc1)Oc1ccc(C2c3[nH]c4ccc(Cl)cc4c3CCN2C(=O)Oc2ccc(Cl)cc2)cc1 (centres unmarked) [Compound 578]	6.70 to 7.40
O=C(Oc1ccc(F)cc1)N1CCc2c([nH]c3ccc(Cl)cc23)C1c1ccc(OCCCCCCNCCCn2ccnc2)cc1 (centres unmarked) [Compound 779]	6.70 to 7.40
O=C(O)c1ccc(C2c3[nH]c4ccc(Cl)cc4c3CCN2C(=O)Oc2ccc(F)cc2)cc1 (centres unmarked) [Compound 581]	< 6.00
CCOC(=O)N1CCc2c([nH]c3ccc(Br)cc23)C1c1ccc(C(=O)N2CCCN(C)CC2)cc1 (centres unmarked) [Compound 484]	6.70 to 7.40
CN(C)c1ncc(C2c3[nH]c4ccc(Cl)cc4c3CCN2C(=O)Oc2ccc(Cl)cc2)cn1 (centres unmarked) [Compound 475]	6.70 to 7.40
CCOC(=O)N1CCc2c([nH]c3ccc(Cl)cc23)C1c1ccc(C(=O)NCCN2CCOCC2)cc1 (centres unmarked) [Compound 509]	6.70 to 7.40
CC(C)C1NCCc2c1[nH]c1ccc(Cl)cc21 (centres unmarked) [Compound 477]	6.70 to 7.40
CN(C)CCCOc1ccc(C2c3[nH]c4ccc(Cl)cc4c3CCN2C(=O)Oc2ccccc2)cc1 (centres unmarked) [Compound 493]	6.70 to 7.40
CCOC(=O)N1CCc2c([nH]c3ccc(Cl)cc23)C1CC(C)C (centres unmarked) [Compound 472]	7.40 to 8.10
COCCOC(=O)Nc1ccc(C2c3[nH]c4ccc(Cl)cc4c3CCN2C(=O)Oc2ccc(Cl)cc2)cc1 (centres unmarked) [Compound 470]	7.40 to 8.10
CCOC(=O)N1CCc2c([nH]c3ccc(Cl)cc23)C1c1ccc(C(=O)NCCC2CCCN2C)cc1 (centres unmarked) [Compound 521]	6.00 to 6.70
COCCOc1ccc(C2c3[nH]c4ccc(Cl)cc4c3CCN2C(=O)OCCF)cc1 (centres unmarked) [Compound 423]	> 8.10
O=C(Oc1ccc(Cl)cc1)N1CCc2c([nH]c3ccc(Cl)cc23)C1c1ccc(OCC2CO2)cc1 (centres unmarked) [Compound 460]	7.40 to 8.10
C=CCOc1ccc(C2c3[nH]c4ccc(Cl)cc4c3CCN2C(=O)Oc2ccc(OC)cc2)cc1 (centres unmarked) [Compound 432]	> 8.10
CCOC(=O)N1CCc2c([nH]c3ccc(Cl)cc23)C1c1cccc(C(=O)N2CCN(CCOC)CC2)c1 (centres unmarked) [Compound 562]	< 6.00
O=C(Oc1ccc(Cl)cc1)N1CCc2c([nH]c3ccc(Cl)cc23)C1c1ccc(OCC(O)CO)cc1 (centres unmarked) [Compound 629]	> 8.10
COCCOc1ccc(C2c3[nH]c4ccc(Cl)cc4c3CCN2C(=O)OCc2ccccc2)cc1 (centres unmarked) [Compound 419]	> 8.10
CC(C)(C)OC(=O)N1CCCC1C(=O)Oc1ccc(C2c3[nH]c4ccc(Cl)cc4c3CCN2C(=O)OC(C)(C)C)cc1 (centres unmarked) [Compound 424]	> 8.10
COCCOCCOc1ccc(C2c3[nH]c4ccc(Cl)cc4c3CCN2C(=O)Oc2ccc(Cl)cc2)cc1 (centres unmarked) [Compound 675]	7.40 to 8.10
CCOC(=O)N1CCc2c([nH]c3ccc(Cl)cc23)C1c1ccsc1 (centres unmarked) [Compound 513]	6.70 to 7.40
O=C(Oc1ccc(Cl)cc1)N1CCc2c([nH]c3ccc(Br)cc23)C1c1ccc(C(F)(F)F)cc1 (centres unmarked) [Compound 405]	> 8.10
CCOC(=O)N1CCc2c([nH]c3ccc(Cl)cc23)C1c1coc2ccccc2c1=O (centres unmarked) [Compound 499]	6.70 to 7.40
CCC(Br)C(=O)N1CCc2c([nH]c3ccc(Cl)cc23)C1c1ccc(OC)cc1 (centres unmarked) [Compound 559]	6.00 to 6.70
CCOC(=O)N1CCc2c([nH]c3ccc(Cl)cc23)C1CC(C)SC (centres unmarked) [Compound 442]	7.40 to 8.10
O=C1OCC(COc2ccc(C3c4[nH]c5ccc(Cl)cc5c4CCN3C(=O)Oc3ccc(Cl)cc3)cc2)O1 (centres unmarked) [Compound 421]	> 8.10
CC(C)OC(=O)Nc1ccc(C2c3[nH]c4ccc(Cl)cc4c3CCN2C(=O)Oc2ccc(Cl)cc2)cc1 (centres unmarked) [Compound 489]	6.70 to 7.40
O=C(Oc1ccc(F)cc1)N1CCc2c([nH]c3ccc(Cl)cc23)C1c1ccc(OCCCCCCN2CCCC2)cc1 (centres unmarked) [Compound 773]	> 8.10
CNc1ncc(C2c3[nH]c4ccc(Br)cc4c3CCN2C(=O)Oc2ccc(OC)cc2)cn1 (centres unmarked) [Compound 503]	6.70 to 7.40
O=C(Oc1ccc(F)cc1)N1CCc2c([nH]c3ccc(Cl)cc23)C1c1ccc(OCCCCl)cc1 (centres unmarked) [Compound 712]	> 8.10

Same assay, conditions: Homo sapiens, HeLa cells, hypoxic conditions (1% O2, 5% CO2)

SMILES	pEC50
Cc1ccc(OC(=O)N2CCc3c([nH]c4ccc(Cl)cc34)C2c2ccc(OCCCn3ccnc3)cc2)cc1 (centres unmarked) [Compound 900]	> 8.10
CN1CCCC(COc2ccc(C3c4[nH]c5ccc(Cl)cc5c4CCN3C(=O)Oc3ccccc3)cc2)C1 (centres unmarked) [Compound 952]	7.40 to 8.10
CN1CCCC(COc2ccc(C3c4[nH]c5ccc(Cl)cc5c4CCN3C(=O)Oc3ccc(Cl)cc3)cc2)C1 (centres unmarked) [Compound 966]	7.40 to 8.10
O=C(Oc1ccc(Cl)cc1)N1CCc2c([nH]c3ccc(Cl)cc23)C1c1ccc(OCCNc2nccs2)cc1 (centres unmarked) [#841]	> 8.10
CC(=O)N1CCN(CCCOc2ccc(C3c4[nH]c5ccc(Cl)cc5c4CCN3C(=O)Oc3ccc(F)cc3)cc2)CC1 (centres unmarked) [Compound 988]	> 8.10
Cc1ccc(OC(=O)N2CCc3c([nH]c4ccc(Cl)cc34)C2c2ccc(OCCCCl)cc2)cc1 (centres unmarked) [Compound 915]	> 8.10
Cc1cnc(NCCOc2ccc(C3c4[nH]c5ccc(Cl)cc5c4CCN3C(=O)Oc3ccc(F)cc3)cc2)s1 (centres unmarked) [#838]	> 8.10
O=C(Oc1ccc(F)cc1)N1CCc2c([nH]c3ccc(Cl)cc23)C1c1ccc(OCCCn2ccnn2)cc1 (centres unmarked) [Compound 995]	> 8.10
